# Reference: patent US8529889B2, “Methods and compositions related to the modulation of intercellular junctions” (Massachusetts Institute of Technology, priority 2004, dated 2013)
# “Also recorded” adds a separate entry of the source.
# B1: heparinase III (protein, UniProt Q59289 25-659, looked up)
# Heparin-sulfate lyase: QSSSITRKDFDHINLEYSGLEKVNKAVAAGNYDDAAKALLAYYREKSKAREPDFSNAEKPADIRQPIDKVTREMADKALVHQFQPHKGYGYFDYGKDINWQMWPVKDNEVRWQLHRVKWWQAMALVYHATGDEKYAREWVYQYSDWARKNPLGLSQDNDKFVWRPLEVSDRVQSLPPTFSLFVNSPAFTPAFLMEFLNSYHQQADYLSTHYAEQGNHRLFEAQRNLFAGVSFPEFKDSPRWRQTGISVLNTEIKKQVYADGMQFELSPIYHVAAIDIFLKAYGSAKRVNLEKEFPQSYVQTVENMIMALISISLPDYNTPMFGDSWITDKNFRMAQFASWARVFPANQAIKYFATDGKQGKAPNFLSKALSNAGFYTFRSGWDKNATVMVLKASPPGEFHAQPDNGTFELFIKGRNFTPDAGVFVYSGDEAIMKLRNWYRQTRIHSTLTLDNQNMVITKARQNKWETGNNLDVLTYTNPSYPNLDHQRSVLFINKKYFLVIDRAIGEATGNLGVHWQLKEDSNPVFDKTKNRVYTTYRDGNNLMIQSLNADRTSLNEEEGKVSYVYNKELKRPAFVFEKPKKNAGTQNFVSIVYPYDGQKAPEISIRENKGNDFEKGKLNLTLTINGKQQLVLVP
# notes: Glycosaminoglycan-degrading enzyme; cleaves the less/unsulfated, heparan sulfate-like regions
# B2: heparinase I (protein, UniProt Q05819 22-384, looked up)
# Heparin lyase I: QQKKSGNIPYRVNVQADSAKQKAIIDNKWVAVGINKPYALQYDDKLRFNGKPSYRFELKAEDNSLEGYAAGETKGRTELSYSYATTNDFKKFPPSVYQNAQKLKTVYHYGKGICEQGSSRSYTFSVYIPSSFPDNATTIFAQWHGAPSRTLVATPEGEIKTLSIEEFLALYDRMIFKKNIAHDKVEKKDKDGKITYVAGKPNGWKVEQGGYPTLAFGFSKGYFYIKANSDRQWLTDKADRNNANPENSEVMKPYSSEYKTSTIAYKMPFAQFPKDCWITFDVAIDWTKYGKEANTILKPGKLDVMMTYTKNKKPQKAHIVNQQEILIGRNDDDGYYFKFGIYRVGNSTVPVTYNLSGYSETAR
# notes: Glycosaminoglycan-degrading enzyme; cleaves HSGAGs at the more sulfated, heparin-like regions
# How the values were obtained:
# [1] = test system: calu-3 human lung adenocarcinoma epithelial cells; experiment: Tight junction (ZO-1) and actin filament disruption by immunofluorescence and confocal microscopy, calu-3; type: cell-based; details: calu-3 cells
# Procedure: (§1) Heparinase III (hep III) was made as described previously (Godavarti R et al., 1996); heparinase I (hep I) was a generous gift from Momenta pharmaceuticals (Cambridge, Mass.); chondroitinase ABC (C-ABC) lyase was purchased from Seikagaku (East Falmouth, Mass.). Hep III was added to the apical side of the cells at a concentration of 10 μg/mL; hep I was added at a concentration of 6 μg/mL, and C-ABC was added at 50 μU/mL. The concentration of ethylene glycol tetra acetic acid (EGTA) (Sigma) used was 5 mM. All the enzymes and the EGTA were made up in serum free Eagle's Minimal Essential medium with 2 mM L-glutamine. Heparin solution was made up to a concentration of 15 mM in serum free media and added to the apical side of the cells after removing the cell medium. Ardeparin sodium and ardeparin calcium powder were added to cells at 6 mg/well, and ardeparin solution was made up to a final concentration of 18 mM.
# (§2) Cells grown on glass coverslips were fixed with 10% buffered formalin for 10 min. Cells were then permeabilized with 0.5% Triton-100 (Sigma) in Tris Buffer Saline with 1% Tween-20 (TBST) for 15 min. at room temperature. Nonspecific antibody binding was blocked with 0.1% bovine serum albumin (BSA) for 30 min. at room temperature. The cells were incubated with primary antibody at room temperature for 4 hours and washed 3 times with PBS. The cells were then incubated in the appropriate secondary antibody for 1 hour in the dark at room temperature and washed 3 times with PBS.
# Calu-3 cells were seeded on gelatin coated coverslips and were allowed to grow for about 4 to 5 days to about 80% confluency. UFH powder was added to the apical side of the cells using an insufflator to ensure homogenous distribution of the powder on the coverslip.
# [2] = test system: 16HBE14O-human virally transformed bronchial epithelial cells; experiment: Tight junction (ZO-1) disruption by immunofluorescence and confocal microscopy, 16HBE14O-; type: cell-based; details: 16HBE14O- cells; for disruption of ZO-1 / tight junctions (epithelial permeability): hep III 10 μg/mL, hep I 6 μg/mL, C-ABC 50 μU/mL, EGTA 5 mM, 20 min. at 37° C.
# Procedure: as §1, §2
# 16HBE14O-cells were grown to confluency on fibronectin coated coverslips for 4 to 5 days after seeding. The cells were then incubated with hep III, hep I, C-ABC and EGTA made up to the final concentration described above for 20 min. at 37° C. Using the primary rabbit anti-ZO-1 antibody and the secondary goat anti-rabbit Texas Red antibody, the cells were analyzed by the immunofluorescence and confocal microscopy technique discussed above. […] Localization of the tight junction protein in untreated cells is also shown as a control.
# [3] = test system: caco-2 (human colon adenocarcinoma) cells; experiment: Tight junction disruption in caco-2 cells; type: cell-based
# Procedure: as §1, §2
# [4] = test system: MCF-7 (human mammary cancer) cells; experiment: Tight junction disruption in MCF-7 cells; type: cell-based
# Procedure: as §1, §2
# syndecan-1 = experiment: Syndecan-1 ectodomain shedding, dot immunoassay, 16HBE14O- cells; type: cell-based, human; details: hep III 10 μg/mL, hep I 6 μg/mL, C-ABC 50 μU/mL
# Procedure: as §1
# (§3) Specificity and quantification of the dot immunoassay for shed syndecan-1 and -4 ectodomains has been previously described in detail (Subramanian et al., 1997). In brief, the conditioned media were diluted in buffer A (0.15 M NaCl buffered to pH 4.5 with 50 mM sodium acetate and with 0.1% Triton X-100) and applied to catonic polyvinylidine diflouride-based membranes (Immobilin-N) (Millipore, Bedford, Mass.) under mild vacuum in an immunodot apparatus (V&P Scientific, San Diego, Calif.). […]
# (§4) Detection was by the ECL system (Amersham) as described by the manufacturer. Results were quantified by scanning the exposed membrane with a Kodak Image Station.
# (§5) 16HBE14O-cells were grown to about 80% confluency in 6 well plates. […] To evaluate the changes in cell number, the cells were trypsinized and counted with a coulter-counter after incubation. […] The membranes were then incubated in mouse anti-syndecan-1 and in the appropriate secondary antibody and were developed and analyzed as described above. […]
# syndecan-4 = experiment: Syndecan-4 ectodomain shedding, dot immunoassay, 16HBE14O- cells; type: cell-based, human; details: hep III 10 μg/mL, hep I 6 μg/mL, C-ABC 50 μU/mL
# Procedure: as §1, §3, §4, §5
molecule,measurement,setting,value
chondroitinase ABC [cABC],disruption of ZO-1 / tight junctions (epithelial permeability),[1],more effect than Hep I
same,disruption of ZO-1 / tight junctions (epithelial permeability),[2],more pronounced effect than Hep III
same,disruption of ZO-1 / tight junctions (epithelial permeability),[2]; listed as C-ABC,cause different amounts of disruption of the tight junctions
same,tight junction disruption (epithelial permeability),[3],Hep III had more effect on tight junction disruption than cABC and Hep I
same,tight junction disruption (epithelial permeability),[4],Hep III had more effect on tight junction disruption than cABC and Hep I
same,syndecan-1 ectodomain shedding,syndecan-1,causes syndecan-1 ectodomain shedding
same,syndecan-4 ectodomain shedding,syndecan-4,did not cause an increase in syndecan-4 ectodomain shedding
"O=C(O)CN(CCOCCOCCN(CC(=O)O)CC(=O)O)CC(=O)O [EGTA, ethylene glycol tetra acetic acid, reference compound]",disruption of ZO-1 / tight junctions (epithelial permeability),[1],caused a disruption of the junctional complex
same,time for cell line to recover from the effect of the treatment,[1],about 8 hours
same,time for cell line to recover from the effect of the treatment,[2],about 8 hours
same,disruption of ZO-1 / tight junctions (epithelial permeability),[2],caused a disruption of the junctional complex; also recorded: cause different amounts of disruption of the tight junctions
same,tight junction disruption (epithelial permeability),[3],caused a disruption of the junctional complex
same,time for cell line to recover from the effect of the treatment,[3],about 8 hours
same,tight junction disruption (epithelial permeability),[4],caused a disruption of the junctional complex
same,time for cell line to recover from the effect of the treatment,[4],about 8 hours
B1,disruption of ZO-1 / tight junctions (epithelial permeability),[1],more effect than Hep I
same,disruption of ZO-1 / tight junctions (epithelial permeability),[2],Hep I and cABC had more pronounced effect than Hep III
same,disruption of ZO-1 / tight junctions (epithelial permeability),[2]; listed as hep III,cause different amounts of disruption of the tight junctions
same,tight junction disruption (epithelial permeability),[3],more effect on tight junction disruption than cABC and Hep I
same,tight junction disruption (epithelial permeability),[4],more effect on tight junction disruption than cABC and Hep I
same,syndecan-1 ectodomain shedding,syndecan-1,causes syndecan-1 ectodomain shedding
same,syndecan-4 ectodomain shedding,syndecan-4,did not cause an increase in syndecan-4 ectodomain shedding
B2,disruption of ZO-1 / tight junctions (epithelial permeability),[1],Hep III and cABC had more effect than Hep I
same,disruption of ZO-1 / tight junctions (epithelial permeability),[2],more pronounced effect than Hep III
same,disruption of ZO-1 / tight junctions (epithelial permeability),[2]; listed as hep I,cause different amounts of disruption of the tight junctions
same,tight junction disruption (epithelial permeability),[3],Hep III had more effect on tight junction disruption than cABC and Hep I
same,tight junction disruption (epithelial permeability),[4],Hep III had more effect on tight junction disruption than cABC and Hep I
same,syndecan-1 ectodomain shedding,syndecan-1,causes syndecan-1 ectodomain shedding
same,syndecan-4 ectodomain shedding,syndecan-4,did not cause an increase in syndecan-4 ectodomain shedding
